Test results from PMC3006138, “Fexinidazole – A New Oral Nitroimidazole Drug Candidate Entering Clinical Development for the Treatment of Sleeping Sickness” (PLoS Neglected Tropical Diseases, 2010).

Assays:
[1] = Mouse pharmacokinetics after 5-day oral dosing; conditions: for AUC0-tlast / AUC0-∞: fexinidazole 200 mg/kg/day po, Day 5
monkey hepatocytes = assay: Hepatocyte intrinsic clearance and metabolite profile; type: in vitro ADME, cynomolgus monkey; conditions: fexinidazole 10 µM
Experimental: (§1) Fexinidazole was incubated with cryopreserved hepatocytes from male CD-1 mice, male Sprague Dawley rats, male beagle dogs, male cynomolgus monkeys, and from pooled white or African-American human donor samples (purchased commercially), at concentrations of 1 µM and 10 µM. […] The incubated samples were analyzed by LC-MS after extraction into acetonitrile.
(§2) A quality control analysis of fexinidazole was performed via 1H-NMR in DMSO and LC- […]
(§3) provided by the Swiss Tropical Institute (Basel, Switzerland).
(§4) Reagents and solvents were of analytical grade and obtained from Sigma-Aldrich (St. Louis, […]
(§5) Cryopreserved hepatocytes from the male CD1 mouse, lot CSI; male Sprague Dawley rat, lot LPL; male beagle dog, lot BWX; male cynomolgus monkey, lot EHH; and pooled human samples, lot MJI, were purchased from In Vitro Technologies Inc (Baltimore, Maryland, […]
(§6) 5.4. In vitro Incubations
(§7) On the day of the experiment a 10 mM stock solution of fexinidazole in DMSO was prepared and, within 3 hours, aliquots of this freshly prepared solution, after suitable dilution, were added to the incubation matrix, to reach fexinidazole final concentrations of 1 and 10 µM. The final percentage of DMSO was 0.01% in the incubation samples for the […]
(§8) On the day of experiment, the cryopreserved hepatocytes were thawed following the detailed instructions provided by the supplier.
(§9) The number of viable cells was determined using a Trypan Blue exclusion method.
(§10) 5.4.1. Intrinsic Clearance Study […]
(§11) µM with mouse, rat, dog, monkey and human hepatocytes (300000 cells/mL for the mouse and 1 million cells/mL for the other species) in a final incubation volume of 0.75 mL […]
(§12) Incubations were performed in duplicate in a 48-well plate under shaking. Sampling was performed using an automatic liquid handling system (Multiprobe II EX, Packard). At 0, 1, 5, 10, 15, 20, 30, 60 and 120 minutes, 50 µL aliquots of the incubates were taken, then 80 µL of ice-cold acetonitrile and 20 µL of 1 µM warfarin in acetonitrile (internal standard) were added, and samples centrifuged at 2000 rpm for 20 min. The supernatant was analyzed by LC-MS/MS. […]
(§13) the medium alone at t = 0 and 120 minutes.
(§14) For the determination of phase I and phase II activity of hepatocytes, 7-ethoxycoumarin (7-EC) 1 µM, and 7-hydroxycoumarin (7-HC) 30 µM were used as positive controls and incubated under the same conditions as fexinidazole. Aliquots of incubates were taken at 0, 10, 20, 30, 60 and 120 minutes and processed as fexinidazole samples.
(§15) 5.4.2. Metabolite Profile Study
(§16) For metabolite profiling, fexinidazole was incubated at a concentration of 10 µM with mouse, rat, dog, monkey and human hepatocytes (300000 cells/mL for the mouse and 1 million cells/mL for the other species) in a final incubation volume of 2 mL Leibovitz L-15 […]
(§17) Aliquots of the incubation samples were taken at t = 0, 30 and 120 minutes; the metabolism was stopped by the addition of an equal volume of cold acetonitrile and the samples centrifuged at 1500 rpm for 20 min. The supernatant was stored at -20°C until analysis. Control incubations were performed with the compound in the medium alone […]
(§18) 5.5. Analysis of Samples for Intrinsic Clearance Determination
(§19) The analysis of the samples for intrinsic clearance determination was performed by an LC-MS/MS method, using the following conditions:
(§20) HPLC Equipment and Conditions
(§21) HPLC system Agilent 1100 binary pump (Agilent, Palo Alto, USA)
(§22) Autosampler CTC Pal (Alfatech, San Jose, USA)
(§23) Analytical column Guard Column SB-C8 4.6 x 12.5 mm, 5 µm (Zorbax)
(§24) Column temperature ambient
(§25) Mobile phase A 10 mM ammonium formate pH 4.0: acetonitrile (95:5, v:v)
(§26) Mobile phase B 10 mM ammonium formate pH 4.0: acetonitrile (5:95, v:v) […]
(§27) Gradient conditions Step Total time (min) flow (µL/min) %A % B […]
(§28) MS Equipment and Conditions
(§29) Mass spectrometer API 4000 Triple Quadrupole (MDS-Sciex, Toronto, […]
(§30) Source Turbo Ion Spray (TIS)
(§31) Ion mode Positive for fexinidazole and 7-EC.
(§32) Negative for 7-HC, 7-HC sulphate and 7-HC glucuronide.

dog hepatocytes = assay: as above; type: in vitro ADME; conditions: fexinidazole 10 µM
Experimental: as §1, §2, §3, §4, §5, §6, §7, §8, §9, §10, §11, §12, §13, §14, §15, §16, §17, §18, §19, §20, §21, §22, §23, §24, §25, §26, §27, §28, §29, §30, §31, §32

hERG = hERG (Homo sapiens, UniProt Q12809); assay: hERG tail current, patch clamp in HEK 293 cells; conditions: for Residual Current (% of control): 37°C
Sequence of hERG (Q12809 whole entry): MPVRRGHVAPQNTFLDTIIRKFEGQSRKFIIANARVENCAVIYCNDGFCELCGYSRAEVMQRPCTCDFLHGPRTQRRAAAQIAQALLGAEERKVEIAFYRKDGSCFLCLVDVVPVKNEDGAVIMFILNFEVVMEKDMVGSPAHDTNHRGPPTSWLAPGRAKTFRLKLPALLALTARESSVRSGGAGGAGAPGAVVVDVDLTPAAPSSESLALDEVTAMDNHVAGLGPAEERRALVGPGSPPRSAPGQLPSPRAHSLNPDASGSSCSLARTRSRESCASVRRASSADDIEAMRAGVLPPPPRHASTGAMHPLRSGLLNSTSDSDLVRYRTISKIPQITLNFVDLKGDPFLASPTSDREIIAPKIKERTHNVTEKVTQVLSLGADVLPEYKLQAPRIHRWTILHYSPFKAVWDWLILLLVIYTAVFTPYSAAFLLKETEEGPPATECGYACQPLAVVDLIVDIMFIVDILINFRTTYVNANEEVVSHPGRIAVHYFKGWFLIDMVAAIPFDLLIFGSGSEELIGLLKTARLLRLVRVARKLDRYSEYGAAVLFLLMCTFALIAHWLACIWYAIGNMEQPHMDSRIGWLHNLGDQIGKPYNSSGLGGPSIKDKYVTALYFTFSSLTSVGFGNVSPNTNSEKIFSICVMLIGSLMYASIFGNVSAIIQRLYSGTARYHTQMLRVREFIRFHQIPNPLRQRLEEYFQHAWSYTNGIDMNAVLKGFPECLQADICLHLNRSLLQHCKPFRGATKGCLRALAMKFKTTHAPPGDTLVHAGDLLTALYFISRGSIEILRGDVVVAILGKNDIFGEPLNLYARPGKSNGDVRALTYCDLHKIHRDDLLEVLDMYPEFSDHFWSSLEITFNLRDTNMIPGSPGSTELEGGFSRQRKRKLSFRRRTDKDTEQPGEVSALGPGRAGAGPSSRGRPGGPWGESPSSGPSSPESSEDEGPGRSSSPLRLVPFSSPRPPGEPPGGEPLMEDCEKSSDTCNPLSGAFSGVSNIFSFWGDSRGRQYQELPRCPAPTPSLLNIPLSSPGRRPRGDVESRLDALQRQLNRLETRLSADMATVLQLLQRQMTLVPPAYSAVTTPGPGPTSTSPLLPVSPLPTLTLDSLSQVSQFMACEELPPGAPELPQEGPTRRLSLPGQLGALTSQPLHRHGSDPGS

[2] = Dog 28-day toxicokinetics; type: in vivo; conditions: both sexes, beagle, plasma, po
Experimental: In the dog repeated-dose toxicokinetic study, fexinidazole was given orally by gavage once a day for 28 days to five (control and high dose) or three (low and mid dose) beagle dogs/sex/dose at the doses of 0 (control group), 50, 200, or 800 mg/kg/day. The control group received the vehicle alone (same as above). Systemic exposure to fexinidazole and of its sulfoxide and sulfone metabolites was evaluated on days 1, 14 and 28 in the same animals used for the toxicological study. Samples were taken at predose, and 30 min, 1, 2, 4, 8 and 24 h after dosing on days 1, 14, and 28, and in addition at 48 and 72 h after treatment on day 28.

[3] = test system: human hepatocytes (pooled); assay: Hepatocyte intrinsic clearance and metabolite profile; type: in vitro ADME; conditions: for % of total drug related material: fexinidazole 10 µM
Experimental: as §1, §2, §3, §4, §5, §6, §7, §8, §9, §10, §11, §12, §13, §14, §15, §16, §17, §18, §19, §20, §21, §22, §23, §24, §25, §26, §27, §28, §29, §30, §31, §32

[4] = male, NMRI, mouse, plasma, po, 200 mg/kg/day
[5] = 50 mg/kg/day, 50 mg/kg/day po, day 1
[6] = 50 mg/kg/day, 50 mg/kg/day po, day 1, read-out: AUC0-t(last)
[7] = 50 mg/kg/day, 50 mg/kg/day po, day 14
[8] = 50 mg/kg/day, 50 mg/kg/day po, day 14, read-out: AUC0-t(last)
[9] = 200 mg/kg/day, 200 mg/kg/day po, day 1
[10] = 200 mg/kg/day, 200 mg/kg/day po, day 1, read-out: AUC0-t(last)
[11] = 200 mg/kg/day, 200 mg/kg/day po, day 14
[12] = 200 mg/kg/day, 200 mg/kg/day po, day 14, read-out: AUC0-t(last)
[13] = 800 mg/kg/day, 800 mg/kg/day po, day 1
[14] = 800 mg/kg/day, 800 mg/kg/day po, day 1, read-out: AUC0-t(last)
[15] = 800 mg/kg/day, 800 mg/kg/day po, day 14
[16] = 800 mg/kg/day, 800 mg/kg/day po, day 14, read-out: AUC0-t(last)

## Cn1c([N+](=O)[O-])cnc1COc1ccc(S(C)(=O)=O)cc1 [Fexinidazole sulfone]
[1]
  AUC0-tlast: 1050 µg·h/mL
  AUC0-∞: 1060 µg·h/mL
[1]; [4]
  Cmax: 77.6 µg/mL
  Tmax: 3 h
  half-life: 2.75 h
Monkey hepatocytes; 30 min
  % of total drug related material: 40%
Monkey hepatocytes; 120 min
  % of total drug related material: 58%
Dog hepatocytes; 30 min
  % of total drug related material: 4%
Dog hepatocytes; 120 min
  % of total drug related material: 15%
hERG; 1 µM
  Residual Current (% of control): 96.16±8.15%
hERG; 5 µM
  Residual Current (% of control): 90.76±3.84%
hERG; 30 µM, 9.34 µg/mL
  decrease on hERG peak tail current: 33%
hERG; 30 µM
  Residual Current (% of control): 67.41±2.24%
hERG; 1 or 5 µM
  effect on hERG peak tail current: no effect
[2]; [5]
  Cmax: 8.58 ± 2.15 µg/mL
  Tmax: 7.33 ± 1.63 h
[2]; [6]
  AUC(0-t): 146 ± 38.3 µg·h/mL
[2]; [7]
  Cmax: 7.78 ± 2.89 µg/mL
  Tmax: 5.33 ± 2.07 h
[2]; [8]
  AUC(0-t): 126 ± 59.1 µg·h/mL
[2]; [9]
  Cmax: 17.6 ± 2.46 µg/mL
  Tmax: 12.7 ± 8.91 h
[2]; [10]
  AUC(0-t): 348 ± 63.9 µg·h/mL
[2]; [11]
  Cmax: 21.8 ± 3.86 µg/mL
  Tmax: 5.33 ± 2.07 h
[2]; [12]
  AUC(0-t): 384 ± 49.9 µg·h/mL
[2]; [13]
  Cmax: 36.1 ± 7.94 µg/mL
  Tmax: 14.4 ± 8.26 h
[2]; [14]
  AUC(0-t): 660 ± 164 µg·h/mL
[2]; [15]
  Cmax: 36.6 ± 6.24 µg/mL
  Tmax: 6.8 ± 1.93 h
[2]; [16]
  AUC(0-t): 653 ± 118 µg·h/mL
[3]; 30 min
  % of total drug related material: 2%
[3]; 120 min
  % of total drug related material: 4%

## Cn1c([N+](=O)[O-])cnc1COc1ccc([S+](C)[O-])cc1 (stereo not drawn) [Fexinidazole sulfoxide]
[1]
  AUC0-tlast: 161 µg·h/mL
  AUC0-∞: 197 µg·h/mL
[1]; [4]
  Cmax: 33.6 µg/mL
  Tmax: 0.833 h
  half-life: 4.31 h
Monkey hepatocytes; 30 min
  % of total drug related material: 60%
Monkey hepatocytes; 120 min
  % of total drug related material: 42%
Monkey hepatocytes; t=0
  % of total drug related material: 47%
Dog hepatocytes; 30 min
  % of total drug related material: 94%
Dog hepatocytes; 120 min
  % of total drug related material: 84%
Dog hepatocytes; t=0
  % of total drug related material: 50%
hERG; 1 µM
  Residual Current (% of control): 87.06±0.92%
hERG; 5 µM
  Residual Current (% of control): 101.39±8.64%
hERG; 30 µM
  Residual Current (% of control): 98.04±1.52%
hERG; 1, 5 and 30 µM
  effect on hERG peak tail current: judged not to affect hERG peak tail current
[2]; [5]
  Cmax: 3.76 ± 0.97 µg/mL
  Tmax: 1.17 ± 0.41 h
[2]; [6]
  AUC(0-t): 19.6 ± 5.68 µg·h/mL
[2]; [7]
  Cmax: 2.99 ± 0.98 µg/mL
  Tmax: 1.33 ± 0.52 h
[2]; [8]
  AUC(0-t): 13.6 ± 5.99 µg·h/mL
[2]; [9]
  Cmax: 8.12 ± 2.66 µg/mL
  Tmax: 1.25 ± 0.61 h
[2]; [10]
  AUC(0-t): 51.4 ± 14.1 µg·h/mL
[2]; [11]
  Cmax: 8.99 ± 2.83 µg/mL
  Tmax: 2 h
[2]; [12]
  AUC(0-t): 56.7 ± 16.6 µg·h/mL
[2]; [13]
  Cmax: 14.5 ± 3.95 µg/mL
  Tmax: 1.55 ± 0.6 h
[2]; [14]
  AUC(0-t): 112 ± 31.8 µg·h/mL
[2]; [15]
  Cmax: 13.6 ± 4.09 µg/mL
  Tmax: 1.6 ± 0.97 h
[2]; [16]
  AUC(0-t): 129 ± 39.8 µg·h/mL
[3]; 30 min
  % of total drug related material: 96%
[3]; 120 min
  % of total drug related material: 95%
[3]; t=0
  % of total drug related material: 17%

## CSc1ccc(OCc2ncc([N+](=O)[O-])n2C)cc1 [Fexinidazole, 1-methyl-2-((p-(methylthio)phenoxy)methyl)-5-nitroimidazole]
[1]; [4]
  AUC(0-t): 1.53 ± 0.348 µg·h/mL
  Cmax: 0.457 ± 0.179 µg/mL
  Tmax: 0.833 ± 0.289 h
  half-life: 2.76 ± 1.26 h
Monkey hepatocytes; t=0
  % of total drug related material: 53%
Dog hepatocytes; t=0
  % of total drug related material: 50%
hERG; 1 µM
  Residual Current (% of control): 100.12±4.29%
hERG; 5 µM
  Residual Current (% of control): 94.86±1.06%
hERG; 30 µM
  Residual Current (% of control): 88.97±8.21%
hERG; 1, 5 and 30 µM
  effect on hERG peak tail current: judged not to affect hERG peak tail current
[2]; [5]
  Cmax: 0.04 ± 0.01 µg/mL
  Tmax: 0.75 ± 0.61 h
[2]; [6]
  AUC(0-t): 0.19 ± 0.13 µg·h/mL
[2]; [7]
  Cmax: 0.03 ± 0.01 µg/mL
  Tmax: 1.08 ± 0.74 h
[2]; [8]
  AUC(0-t): 0.15 ± 0.13 µg·h/mL
[2]; [9]
  Cmax: 0.07 ± 0.03 µg/mL
  Tmax: 1 ± 0.55 h
[2]; [10]
  AUC(0-t): 0.44 ± 0.09 µg·h/mL
[2]; [11]
  Cmax: 0.08 ± 0.01 µg/mL
  Tmax: 1.5 ± 0.77 h
[2]; [12]
  AUC(0-t): 0.45 ± 0.14 µg·h/mL
[2]; [13]
  Cmax: 0.14 ± 0.07 µg/mL
  Tmax: 1.15 ± 0.47 h
[2]; [14]
  AUC(0-t): 0.84 ± 0.32 µg·h/mL
[2]; [15]
  Cmax: 0.14 ± 0.05 µg/mL
  Tmax: 1.2 ± 0.42 h
[2]; [16]
  AUC(0-t): 1.05 ± 0.3 µg·h/mL
[3]; 1 µM
  t1/2: 0.223 h
[3]; 30 min
  % of total drug related material: 2%
[3]; 120 min
  % of total drug related material: < 1%
[3]; t=0
  % of total drug related material: 83%
